Results published in publication PMC9179882 (Cancers, 2022).

Tests used:
[1] = system: CMYC (FID oligonucleotide) (DNA, G4) GGGGCGCTTATGGGGAGGGTGGGGAGGGTGGGGAAGGTGGGGAGGAG; experiment: fluorescent intercalator displacement (TOPRO3); details: oligonucleotide prefolded in 100 mM KCl, 10 mM potassium phosphate; TOPRO3 displaced; 10 µM GA, single concentration; prefolding buffer pH 7.0
[2] = system: SW620 cells; experiment: Resazurin cytotoxic assay, metastatic SW620; format: cell-based, human; details: 48 h, mean ± SD
Procedure: (§1) CRL1790, SW480 and SW620 cell lines were purchased from American Type Culture Collection (ATCC). Cells were cultured at 37 °C with 5% CO2 atmosphere in medium supplemented with 10% fetal bovine serum (10270106, Gibco, Waltham, MA, USA), 10 mg/mL penicillin, 10 mg/mL streptomycin, […] amphotericin, and 0.03% L-Glutamine as recommended by the ATCC. MEM medium (M5650, Merck, Darmstadt, Germany) was used for non-tumoral CRL1790, and RPMI 1640 medium (L0501-500, Biowest, Nuaillé, France) was used for both tumoral SW480 and SW620 cell lines.
(§2) Cytotoxic activity was screened using Resazurin Fluorimetric Assay (R7017, Merck, Darmstadt, Germany), according to the manufacturer’s protocol. Cells seeded into 96-well plates (8 × 10^3 cells/well) were treated for 48 h with phenolic compounds at increasing concentrations from 2 × 10^−5 µM to 100 µM. Negative control with vehicle DMSO was included. Fluorescence was determined using Nanoquant Infinite M200 Pro multi-plate reader (Tecan). Half-maximal inhibitory concentration (IC50) values were determined in triplicate by non-linear regression with Graphpad (Prism).
(§3) Natural products such as phenolic compounds have recently attracted significant attention for their anticancer properties. […] We used three different cell lines to mimic CRC progression. In particular, CRL1790 are colon epithelial cells simulating the non-tumoral stage. In addition, SW480 is Dukes’ type B colorectal adenocarcinoma cells representing the primary tumor. Finally, SW620 constitutes Dukes’ type C colorectal adenocarcinoma derived from metastasic site cells to mimic the most aggressive metastasic stage. […] Cytotoxic potency upon 48 h treatment with phenolic compounds was examined by determination of half-maximal inhibitory concentration (IC50) values using the Resazurin method (Table 1). Only GA inhibited cell growth in SW480 and SW620 at clinically-relevant concentrations (IC50 values lower than 30 µM).

[3] = system: 5′ETS G4; experiment: TOPRO3 fluorescent intercalator displacement (FID) assay, 5′ETS G4; format: binding; details: GA 10 µM, relative to GA-free control
Procedure: (§4) G4-oligonucleotides listed in Supplementary Table S3 were purchased from Integrated DNA Technologies (Clareville, IA, USA). All of them were dissolved in G4s buffer (10 mM potassium phosphate, 100 mM potassium chloride at pH 7.0), heated at 95 °C for 10 min, slowly cooled to RT, and stored at 4 °C.
We used TOPRO3 (T3605, Thermo Scientific, MA, USA) as a fluorescent intercalator for FID assays. In particular, […] TOPRO3 was incubated with […] prefolded G4s and exposed to 10 µM GA in 96-well plates. TOPRO3 was excited at 642 nm, and emission profile was monitored between 650–800 nm with Infinite M200 Plate Reader (Tecan). Fluorescence values were calculated as follows: %Fluorescence = A/B × 100; where (A) is the fluorescence value in presence of GA, and (B) corresponds to the fluorescence value in GA-free controls. All assays were conducted in triplicate. The G4-oligonucleotides used in the current study are listed in Supplementary Table S3.

[4] = system: CMYC G4; experiment: PCR-stop assay, CMYC G4; format: biochemical; details: CMYC G4 sequence, GA 0-100 µM
[5] = system: SW480 cells; experiment: Resazurin cytotoxic assay, tumoral SW480; format: cell-based, human; details: SW480 primary tumor cells, mean ± SD
Procedure: as §1, §2, §3

[6] = system: CRL1790 cells; experiment: Resazurin cytotoxic assay, non-tumoral CRL1790; format: cell-based; details: Homo sapiens, Epithelial cell, CRL1790 non-tumoral colon epithelial cells, 48 h, mean ± SD
Procedure: as §1, §2, §3

[7] = system: CMYC (CD and UV-vis oligonucleotide) (DNA, G4) TGGGGAGGGTGGGGAGGGTGGGGAAGG; experiment: UV-vis titration at 265 nm; details: 100 mM KCl, 10 mM potassium phosphate; pH 7.0, 25 °C; 5 µM DNA; GA to 1:20 DNA:GA
[8] = target: CMYC G4; experiment: UV-vis titration, CMYC G4; format: binding; details: UV-vis titration at 265 nm, CMYC G4, 25 °C, pH 7.0; read-out: dissociation constant (Kd)
Procedure: as §4
UV-vis absorption spectra were registered in a Varian Cary 50 UV-vis spectrophotometer at 25 °C. Concentration of the prefolded G4 DNA was 5 μM in G4s buffer (10 mM potassium phosphate buffer containing 100 mM potassium chloride at pH 7.0). Once the DNA was placed in the cuvette, a concentrated solution of GA (1 mM) was routinely added, 1 μL each time, with a Hamilton syringe and subsequently mixed with a pipette. After each addition of the GA solution, a UV-vis spectrum was recorded. In total, 10 μL of GA solution were added, with a final ratio of 1:20 G4 DNA:GA. For the blank, the same experiment with the successive additions was repeated, beginning just with buffer in the cuvette. […] Dissociation constants (Kd) were evaluated at 265 nm using the following equation:(1) A=Am+(Aml-Am)×(M+L+Kd)−(M+L+Kd)^2−4×M×L/2×M where A is the absorbance signal, Am is the signal of DNA in absence of the ligand, Aml is the signal of DNA in presence of the ligand, M is the total concentration of DNA, L is the total concentration of ligand, and Kd is the dissociation constant.

[9] = system: 5′ETS G4; experiment: PCR-stop assay, 5′ETS G4; format: biochemical; details: 5′ETS G4 sequence, GA 0-100 µM
[10] = system: 5′ETS (DNA, G4) GGGGGGCGGGTGGTTGGG; experiment: fluorescent intercalator displacement (TOPRO3); details: oligonucleotide prefolded in 100 mM KCl, 10 mM potassium phosphate; TOPRO3 displaced; 10 µM GA, single concentration; prefolding buffer pH 7.0

%Fluorescence [1]: 84.3% | TOPRO3 fluorescence percentage [3]: 84.2% | Kd [7]: 113 µM | Kd [8]: 113 µM | %Fluorescence [10]: 84.2%
SMILES: O=C(O)c1cc(O)c(O)c(O)c1 [Gallic acid, 3,4,5-trihydroxybenzoic acid]
IC50 [2]: 11.8 ± 1.54 µM | IC50 ([2]; listed as GA): < 30 µM | concentration inhibiting accumulation of amplified products [4]: 50 µM | IC50 ([5]; Homo sapiens, SW480, 48 h): < 30 µM | IC50 ([5]; 48 h): 22.4 ± 2.12 µM | IC50 [6]: > 100 µM | concentration inhibiting accumulation of amplified products [9]: 100 µM
